Results reported in patent publication US20250073167A1, “A POLYMER TO INCREASE THE BIOAVAILABILITY OF A PHARMACEUTICAL COMPOUND” (CATALYA, priority 2022, published 2025).

Experiment: Oral delivery of fluorescein with 10 kDa polymer: bioavailability and recovery in blood, urine and feces
Type: in vivo, rat
Settings: ingestion
Description: Eighteen rats have been selected and have been given either no polymer (rats 1, 2, 10, 11), or the polymer (10 kDa) at a dose of 5 mg/kg (rats 13-15), 50 mg/kg (rats 4-6, 12, 16-18) or 300 mg/kg (rats 3 and 7-9). Fluorescein has been either covalently coupled to the polymer (rats 4-9 and 13-18; labelled as PO or IV in the figures), or physically (non-covalently) adhered to the polymer (rats 3 and 12); labelled as PO* or IV* in the figures.
The polymer has been administered either per ingestion (PO or PO*) or by injection (IV or IV*). Blood concentration of the polymer-fluorescein (FIG. 1), or of the (potentially-free) fluorescein (FIG. 2) has been measured in the blood, in the feces (FIG. 4) and in urine (FIG. 3).

ingested fluorescein found in the feces (rats (FIG. 4)): > 99%
ingested fluorescein internalized (rats, without the polymer): less than 1%
Structure (SMILES): O=C1OC2(c3ccc(O)cc3Oc3cc(O)ccc32)c2ccccc21 [free fluorescein, fluorescein]
